In paper PMC5676773, “Odor-evoked inhibition of olfactory sensory neurons drives olfactory perception in Drosophila” (Nature Communications, 2017):

Columns and labels:
[1] = molecular target: T1, Or85a (OR/ORCO complex in Or85a-OSNs) (Drosophila melanogaster, UniProt Q9VHS4); test: perforated patch clamp of Or85a-OSNs, inward receptor current; assay type: cell-based; details: 35-ms odor pulses, no acetophenone; excitatory odor (agonist); nominal concentration in saline; voltage-clamped; read-out: K 1/2
T1 construct: native receptor in Or85a-expressing olfactory sensory neurons, antennal slices; GFP-labelled via Or85a-Gal4; with Odorant receptor coreceptor
T1 sequence (Q9VHS4 1-397): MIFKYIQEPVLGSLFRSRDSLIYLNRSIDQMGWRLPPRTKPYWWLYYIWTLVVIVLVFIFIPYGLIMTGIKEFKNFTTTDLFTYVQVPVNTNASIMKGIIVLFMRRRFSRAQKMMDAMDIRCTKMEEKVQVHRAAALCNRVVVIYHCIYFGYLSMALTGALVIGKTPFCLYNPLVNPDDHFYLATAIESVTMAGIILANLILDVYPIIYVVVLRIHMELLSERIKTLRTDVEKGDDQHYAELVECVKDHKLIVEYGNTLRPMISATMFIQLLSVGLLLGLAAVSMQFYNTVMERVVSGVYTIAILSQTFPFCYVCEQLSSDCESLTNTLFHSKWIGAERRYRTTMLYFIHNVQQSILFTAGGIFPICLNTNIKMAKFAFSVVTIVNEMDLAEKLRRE
T1 sequence (Q9VNB5 1-486 partner): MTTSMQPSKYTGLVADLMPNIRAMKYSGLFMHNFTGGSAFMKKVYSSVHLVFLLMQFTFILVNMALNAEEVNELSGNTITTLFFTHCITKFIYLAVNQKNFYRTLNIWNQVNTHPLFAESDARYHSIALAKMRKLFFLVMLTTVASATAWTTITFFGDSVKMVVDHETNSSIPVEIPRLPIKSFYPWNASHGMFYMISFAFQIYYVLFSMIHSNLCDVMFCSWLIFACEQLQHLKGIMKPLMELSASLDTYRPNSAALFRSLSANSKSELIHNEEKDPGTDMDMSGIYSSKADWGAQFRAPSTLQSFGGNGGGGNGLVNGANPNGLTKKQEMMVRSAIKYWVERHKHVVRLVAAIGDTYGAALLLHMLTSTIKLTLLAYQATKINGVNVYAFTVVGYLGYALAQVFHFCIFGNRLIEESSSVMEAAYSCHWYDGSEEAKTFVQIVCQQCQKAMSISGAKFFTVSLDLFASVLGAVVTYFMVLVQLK

[2] = molecular target: T1, Or85a (OR/ORCO complex in Or85a-OSNs); test: perforated patch clamp of Or85a-OSNs, outward receptor current (reduction of basal current); assay type: cell-based; details: 150-ms odor pulses, -80 mV; inhibits constitutive activity (inverse agonist), competitive against ethyl 3-hydroxybutyrate; Hill fit, n = 4; read-out: K 1/2

| Structure (SMILES) | EC50 [1] | IC50 [2] |
| --- | --- | --- |
| CCOC(=O)CC(C)O (centres unmarked) [ethyl 3-hydroxybutyrate] | 1.1 ± 0.2 mM | – |
| CC(=O)c1ccccc1 [acetophenone] | – | 27 ± 13 mM |
